Source: US11980185B2, “Bioflavonoid compositions and their use for water purification and food preservation” (Citrox Biosciences Limited, priority 2018, dated 2024)

What was measured:
Escherichia coli [1] = assay: Direct exposure growth inhibition of mini cultures by turbidity (MIC); assay type: cell-based; conditions: 5 hours at 37° C.
Method: Growth inhibition was monitored by measuring turbidity of mini cultures after 5 hours of aerobe incubation at 37° C. under agitation. Solutions were diluted to the half in cascade.

Streptococcus mutans = assay: Inhibition zone assay on BHI agar plate; assay type: cell-based; conditions: 48 h at 37° C. anaerobe
Method: The antibacterial activity of ε-polylysine was semi-quantitatively assessed in a inhibition zone assay. 0.1 mL of a confluent Streptococcus mutans culture was spread over a Brain Heart Infusion (BHI) agar plate. Filter platelets (5 mm diameter) soaked with 0.01 mL substance were applied on plate. Plates were incubated 48 h at 37° C. under anaerobe conditions. The diameter of outer limit of the inhibition zones were measured, the diameter of the platelet deduced and the half result considered the radius of inhibition rings. Concentrations were tested in triplicate and their results averaged.

S. mutans = assay: Short exposure assay (bactericidal effect); assay type: cell-based, Streptococcus mutans; conditions: 0.05%, 10 minutes exposure, 5000 Colony Forming Units
Method: The short-term antibacterial activity of Citrox was semi-quantitatively assessed in a short exposure assay. A S. mutans culture, diluted in order to contain 5000 Colony Forming Units, was incubated for 10 minutes in presence of the antibacterial substance and extemporarily plated onto a BHI agar plate. Plates were incubated at 37° C. under anaerobe conditions and colony counted. […] Citrox 0.5% reduced the count of CFU to the half (<3000 CFU).

[2] = tested on: chloroquine-sensitive Plasmodium chabaudi; assay: Malaria infection in mice; assay type: in vivo; conditions: 20 to 40 days post-treatment
Escherichia coli [3] = assay: Pretreatment of high binding plates, growth inhibition by turbidity; assay type: cell-based
Method: High Binding plates were pre-treated with 0.1 mL of pure Citrox/ε-Polylysine solutions incubated 60′ at room temperature. The concentrations of Citrox range from 0.06% to 4%. The ε-Polylysine concentrations range from 30 mg/L to 120 mg/L. The wells have been emptied and rinsed with 0.2 mL bi-distilled water. 0.2 mL of a diluted Escherichia coli culture (turbidity: 5 mOD at 600 nm) were given to the pre-treated wells and incubated for 3 hours at 37° C. Turbidity were measured at 600 nm and percentage of growth inhibition in comparison to untreated well calculated (FIG. 1).

Glucose oxidase = Glucose oxidase (Aspergillus niger, UniProt P13006); assay: Immobilisation of glucose oxidase onto silicate, residual activity in solution; conditions: 0.25 mg/mL, 2 mg/mL silicate, artificial saliva buffer, FIG. 3
Method: 0.5 mg/mL glucose oxidase enzyme was incubated for 15 minutes at room temperature in an artificial saliva buffer composition including:
with 2 mg/mL silicate and 0.25 mg/mL of an amino acid based compound, bovine serum albumin (BSA), lysine or ε-polylysine. The mixture was centrifuged in order to pellet the silicate and the supernatant tested for its glucose oxidase activity in presence of glucose, lactoperoxidase and a chromogen substrate (ABTS). The resulting activities were compared with the enzyme incubated with silicate in absence of an amino acid compound (FIG. 3).

Sequence of Glucose oxidase (P13006 17-605): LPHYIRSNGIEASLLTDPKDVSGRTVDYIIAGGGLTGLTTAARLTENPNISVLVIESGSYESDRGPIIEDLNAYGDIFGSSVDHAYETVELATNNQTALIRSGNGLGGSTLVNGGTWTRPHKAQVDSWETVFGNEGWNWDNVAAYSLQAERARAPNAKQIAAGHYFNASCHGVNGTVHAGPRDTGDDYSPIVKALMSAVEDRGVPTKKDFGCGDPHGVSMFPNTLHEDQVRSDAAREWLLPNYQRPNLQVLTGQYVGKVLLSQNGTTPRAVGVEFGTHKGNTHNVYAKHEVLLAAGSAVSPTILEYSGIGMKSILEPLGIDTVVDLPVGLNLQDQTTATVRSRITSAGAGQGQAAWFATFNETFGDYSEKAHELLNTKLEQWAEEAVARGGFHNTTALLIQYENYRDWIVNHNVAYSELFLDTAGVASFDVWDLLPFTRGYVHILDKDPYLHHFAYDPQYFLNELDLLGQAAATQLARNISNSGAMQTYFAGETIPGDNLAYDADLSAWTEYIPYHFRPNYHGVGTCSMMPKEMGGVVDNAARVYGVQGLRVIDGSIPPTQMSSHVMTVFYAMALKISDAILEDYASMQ

## CCO [Ethanol, reference compound]
Escherichia coli [1]; less than 2% (6% in case of ethanol) of growth, extrapolated from FIG. 2, 1% corresponds to 10 g/L
  Minimal inhibitory concentration (MIC): 12.5%
Streptococcus mutans; concentration not given
  Radius of inhibition rings: 5 mm

## OO [Water peroxide, reference compound]
Streptococcus mutans; 0.1%
  Radius of inhibition rings: 1.5 mm
Streptococcus mutans; 1%
  Radius of inhibition rings: 5 mm
S. mutans
  colony formation: complete absence of colony formation

## CCN(CC)CCCC(C)Nc1ccnc2cc(Cl)ccc12 (stereo not shown) [chloroquine]
[2]
  infection level: approx. zero infection

## ε-Polylysine
Escherichia coli [1]; less than 2% of growth vs untreated control, extrapolated from FIG. 2
  Minimal inhibitory concentration (MIC): 4 mg/L
Escherichia coli [3]; plate pretreatment together with Citrox
  highest ε-polylysine concentration that does not affect significantly the antibacterial effect of Citrox pretreatment: 30 mg/L
Escherichia coli [3]; ε-polylysine alone, titers largely above the MIC of direct exposure
  inhibitory effect of pretreatment of a high binding plate: does not yield any inhibitory effect
Streptococcus mutans; 10 mg/L
  Radius of inhibition rings: 0.5 mm
Streptococcus mutans; 100 mg/L
  Radius of inhibition rings: 2.5 mm
Streptococcus mutans; 1000 mg/L
  Radius of inhibition rings: 6.5 mm
Glucose oxidase
  immobilization of Glucose oxidase onto silicate: promotes immobilization of Glucose oxidase onto silicate
